Results from US20030166583A1, “Dermal cytochrome P450 1A inhibitors and enhancers” (priority 2002, published 2003).
Where two headings read alike, the source gives them in different places.

Experiments:
CYP1A [1] = test: in vitro; settings: nude, mouse, pH 7.8
Description: (§3) Nude mice were sacrificed by decapitation. The skin and liver were immediately removed and kept in ice bath or 4° C. […] Connective tissue, blood, and fat were carefully removed from the tissue. Excess water content was removed from the homogenized tissue by tissue papers before the tissue was weighed.
(§4) The suspension of homogenized tissue in potassium chloride solution was transferred into a Teflon pestle-glass homogenizer for homogenization for six (6) times. Then, potassium chloride solution was added into the homogenized suspension to bring the volume to about four (4) times of the homogenized suspension. The diluted suspension was 5 transferred into a centrifuge tube and centrifuged at 4° C., 9000 xg, for twenty (20) minutes. The supernatant containing microsomes from skin or liver tissue and other soluble substance were removed and the volume of the supernatant was brought up to four (4) times of the weight of the tissue by adding potassium chloride solution. The diluted supernatant was transferred into a centrifuge tube and centrifuged at 4° C., 100,000 xg, for one (1) hour (Beckman L8-80M). The precipitate containing the microsomes was obtained. Potassium chloride solution was added into the precipitate to bring the volume up to four (4) times of the weight of the tissue, and the suspension was centrifuged at 4° C., 100,000 xg for one (1) hour, to obtain the washed microsomes, which were stored at −78° C. in 0.1M KH2PO4-K2HPO4 buffer (pH=7.4).
(§5) The enzymatic activity of CYP1A was determined based on the activity of 7-ethoxyresorufin-O-deethylase (i.e., for CYP1A) and 7-methoxyresorufin-O-demethylase (i.e., CYP1A2). […] Except for the blank group, the reaction was triggered by adding 0.54 μM NADPH. In the test tube (16×100 mm), the reaction was carried out for ten (10) minutes at constant temperature (37° C.) with vibration and without light Methanol 2.5 ml was added into the reaction mixture to stop the reaction. Protein precipitate was removed from the reaction mixture by centrifuging the reaction mixture at 180 xg for ten (10) minutes. The supernatant was tested for florescent intensity with 550 nm as the excitation wavelength and 585 nm the emission wavelength. The florescent intensity was compared with 0.01 μM-0.1 μM standard Rhodamine B solution to obtain the reading of the CYP1A enzyme activity.

CYP1A [2] = test: in vitro; settings: nude, mouse; for activity at 10 min, 1 µM / activity at 10 min, 10 µM / activity at 10 min, 100 µM: pH 7.8, dermal CYP1A activity (% of control group); for inhibition at 10 min, 100 µM: pH 7.8, inhibition of dermal CYP1A activity
From the text: (§1) Nude mice were sacrificed by decapitation.
(§2) The precipitate containing the microsomes was obtained.

dermal CYP1A = test: in vitro
From the text: as §1, §2

Description for liver CYP1A: as §3, §4, §5

Compound | activity at 10 min, 1 µM (CYP1A [1]) [%] | activity at 10 min, 100 µM (CYP1A [1]) [%] | activity at 10 min, 1 µM (CYP1A [2]) [%] | activity at 10 min, 10 µM (CYP1A [2]) [%] | activity at 10 min, 100 µM (CYP1A [2]) [%] | inhibition at 10 min, 100 µM (CYP1A [2]) [%] | liver CYP1A activity (% of control group) (liver CYP1A; 1 µM) [%] | liver CYP1A activity (% of control group) (liver CYP1A; 10 µM) [%] | liver CYP1A activity (% of control group) (liver CYP1A; 100 µM) [%] | dermal CYP1A activity (% of control group) (dermal CYP1A; 1 µM) [%] | dermal CYP1A activity (% of control group) (dermal CYP1A; 10 µM) [%] | dermal CYP1A activity (% of control group) (dermal CYP1A; 100 µM) [%] | activity at 10 min, 10 µM (CYP1A [1]) [%]
O=c1cc(-c2ccc(O)cc2)oc2cc(O)cc(O)c12 [Apigenin] | 118 | 53.5 | 103 | 97.2 | 76.4 | ~24 |  |  |  |  |  |  | 
O=c1cc(-c2ccccc2)oc2ccc3ccccc3c12 [Beta-NF, β-naphthoflavone] |  |  |  |  |  |  | 75.00 | 22.78 | 13.79 | 27.41 | 24.00 | 3.76 | 
O=C(O)/C=C/c1ccccc1 [Trans-cinnamic acid] | 109 | 101 | 117 | 110 | 86.6 | ~13 |  |  |  |  |  |  | 103
